According to PubChem BioAssay AID1963968 (Molecular Pharmacology Branch, DTP, NCI, 2024):

System: 945468-187-T-J3-PDC spheroids with HUVEC/MSC, viability
Test: Anticancer human tumor 945468-187-T-J3-PDC patient-derived rectal carcinoma cell line growth inhibition [PI3K]
Details: for IC50: curve of first compound; for viability, T/C: stronger effect = lower value; active = viability on the fitted dose curve at most 10% of control; inactive = the rest
Summary of the method: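 Complex 3D spheroids (cancer cells + endothelial HUVEC + mesenchymal stem cells); drug pairs of targeted agent x inavolisib/alpelisib/duvelisib/copanlisib; half-log series from ~Cmax, max 10 microM if Cmax unknown; endpoint viability.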

[1] = second compound 0.0316 µM, first compound 0.0316 µM
[2] = second compound 0.0316 µM, first compound 0.1 µM
[3] = second compound 0.0316 µM, first compound 0.316 µM
[4] = second compound 0.0316 µM, first compound 1 µM
[5] = second compound 0.0316 µM, first compound 3.16 µM
[6] = second compound 0.0316 µM, first compound 10 µM
[7] = second compound 0.1 µM, first compound 0.0316 µM
[8] = second compound 0.1 µM, first compound 0.1 µM
[9] = second compound 0.1 µM, first compound 0.316 µM
[10] = second compound 0.1 µM, first compound 1 µM
[11] = second compound 0.1 µM, first compound 3.16 µM
[12] = second compound 0.1 µM, first compound 10 µM
[13] = second compound 0.316 µM, first compound 0.0316 µM
[14] = second compound 0.316 µM, first compound 0.1 µM
[15] = second compound 0.316 µM, first compound 0.316 µM
[16] = second compound 0.316 µM, first compound 1 µM
[17] = second compound 0.316 µM, first compound 3.16 µM
[18] = second compound 0.316 µM, first compound 10 µM
[19] = second compound 1 µM, first compound 0.0316 µM
[20] = second compound 1 µM, first compound 0.1 µM
[21] = second compound 1 µM, first compound 0.316 µM
[22] = second compound 1 µM, first compound 1 µM
[23] = second compound 1 µM, first compound 3.16 µM
[24] = second compound 1 µM, first compound 10 µM
[25] = second compound 3.16 µM, first compound 0.0316 µM
[26] = second compound 3.16 µM, first compound 0.1 µM
[27] = second compound 3.16 µM, first compound 0.316 µM
[28] = second compound 3.16 µM, first compound 1 µM
[29] = second compound 3.16 µM, first compound 3.16 µM
[30] = second compound 3.16 µM, first compound 10 µM
[31] = second compound 10 µM, first compound 0.0316 µM
[32] = second compound 10 µM, first compound 0.1 µM
[33] = second compound 10 µM, first compound 0.316 µM
[34] = second compound 10 µM, first compound 1 µM
[35] = second compound 10 µM, first compound 3.16 µM
[36] = second compound 10 µM, first compound 10 µM
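Also: spheroids exposed to agents for 7 days before viability read.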
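For viability, T/C in this document: 100% = DMSO vehicle control viability.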

C#Cc1c(F)ccc2cc(O)cc(-c3ncc4c(N5CC6CCC(C5)N6)nc(OCC56CCCN5CC(F)C6)nc4c3F)c12 (centres undefined) + CC(Nc1ncnc2nc[nH]c12)c1cc2cccc(Cl)c2c(=O)n1-c1ccccc1
inactive: viability, T/C [1] 91.2% | viability, T/C [2] 93% | viability, T/C [3] 103% | viability, T/C [4] 110% | viability, T/C [5] 113% | viability, T/C [6] 101% | viability, T/C [7] 101% | viability, T/C [8] 105% | viability, T/C [9] 99.8% | viability, T/C [10] 103% | viability, T/C [11] 115% | viability, T/C [12] 101% | viability, T/C [13] 100% | viability, T/C [14] 97.4% | viability, T/C [15] 103% | viability, T/C [16] 107% | viability, T/C [17] 117% | viability, T/C [18] 104% | viability, T/C [19] 100% | viability, T/C [20] 95.2% | viability, T/C [21] 96.8% | viability, T/C [22] 111% | viability, T/C [23] 111% | viability, T/C [24] 97.9% | viability, T/C [25] 102% | viability, T/C [26] 105% | viability, T/C [27] 106% | viability, T/C [28] 99.8% | viability, T/C [29] 110% | viability, T/C [30] 101% | viability, T/C [31] 100% | viability, T/C [32] 99.5% | viability, T/C [33] 111% | viability, T/C [34] 126% | viability, T/C [35] 121% | viability, T/C [36] 92.5%
> 10 µM: IC50 (second compound 0.0316 µM) | IC50 (second compound 0.1 µM) | IC50 (second compound 0.316 µM) | IC50 (second compound 1 µM) | IC50 (second compound 3.16 µM) | IC50 (second compound 10 µM)

C=CC(=O)N1CCN(c2nc(=O)n(-c3c(C)ccnc3C(C)C)c3nc(-c4c(O)cccc4F)c(F)cc23)C(C)C1 (centres undefined) + CC(Nc1ncnc2nc[nH]c12)c1cc2cccc(Cl)c2c(=O)n1-c1ccccc1
inactive: viability, T/C [1] 91.9% | viability, T/C [2] 92.9% | viability, T/C [3] 104% | viability, T/C [4] 96.4% | viability, T/C [5] 96.6% | viability, T/C [6] 98.3% | viability, T/C [7] 94.7% | viability, T/C [8] 103% | viability, T/C [9] 100% | viability, T/C [10] 92.6% | viability, T/C [11] 107% | viability, T/C [12] 95.9% | viability, T/C [13] 94.8% | viability, T/C [14] 92.9% | viability, T/C [15] 88.5% | viability, T/C [16] 91.6% | viability, T/C [17] 106% | viability, T/C [18] 99.3% | viability, T/C [19] 99.3% | viability, T/C [20] 105% | viability, T/C [21] 94.8% | viability, T/C [22] 94.1% | viability, T/C [23] 107% | viability, T/C [24] 95.8% | viability, T/C [25] 90.5% | viability, T/C [26] 99.6% | viability, T/C [27] 101% | viability, T/C [28] 110% | viability, T/C [29] 97.2% | viability, T/C [30] 93.4% | viability, T/C [31] 104% | viability, T/C [32] 91.1% | viability, T/C [33] 97.9% | viability, T/C [34] 97.6% | viability, T/C [35] 116% | viability, T/C [36] 93.9%
> 10 µM: IC50 (second compound 0.0316 µM) | IC50 (second compound 0.1 µM) | IC50 (second compound 0.316 µM) | IC50 (second compound 1 µM) | IC50 (second compound 3.16 µM) | IC50 (second compound 10 µM)
